# Earlier results in patent US20170342372A1, “CELL CULTURE MEDIA” (MERCK PATENT GMBH, priority 2014, published 2017).
# Conditions: water / aqueous solvents
row,solubility in water (in words),SMILES
1,moderate solubility,CC[C@H](C)[C@H](N)C(=O)O [isoleucine]
2,moderate solubility,CC(C)C[C@H](N)C(=O)O [leucine]
3,poorly soluble,N[C@@H](CSSC[C@H](N)C(=O)O)C(=O)O [cystine]
4,moderate solubility,CC(C)[C@H](N)C(=O)O [valine]
